The text below walks through data of ChEMBL document CHEMBL5236565, “Design, synthesis, and biological evaluation of novel 2'-methyl-2'-fluoro-6-methyl-7-alkynyl-7-deazapurine nucleoside analogs as anti-Zika virus agents” (Eur J Med Chem, 2022).

Test [1] concerns Zika virus. Put plainly: Antiviral activity against ZIKV infected in human A549 cells at 50 uM by microtiter assay relative to control. In kind it is functional.
Test [2] concerns Zika virus. The test is described as follows: Antiviral activity against ZIKV ZG-01 infected in human A549 cells assessed as reduction in viral induced cytopathic effect by measuring reduction in PFU measured after 4 days by neutral red staining based plaque assay. The note with it: ZG-01, A549, 96 h; for EC90: time 4 day. The test is classed as functional, organism-based.
The next test deals with A549. The test is described as follows: Cytotoxicity against human A549 cells assessed as cell growth inhibition measured after 24 hrs by MTT assay. In kind it is functional.
Another test addresses NS5 (Zika virus, UniProt A0A143MHK7). Put plainly: Binding affinity to N-terminal His-tagged recombinant ZIKV ZG-01 RdRp (272 to 903 residues) expressed in Escherichia coli rosetta by surface plasmon resonance assay.

NS5, sequence (A0A143MHK7 whole entry, the tested form may be a part): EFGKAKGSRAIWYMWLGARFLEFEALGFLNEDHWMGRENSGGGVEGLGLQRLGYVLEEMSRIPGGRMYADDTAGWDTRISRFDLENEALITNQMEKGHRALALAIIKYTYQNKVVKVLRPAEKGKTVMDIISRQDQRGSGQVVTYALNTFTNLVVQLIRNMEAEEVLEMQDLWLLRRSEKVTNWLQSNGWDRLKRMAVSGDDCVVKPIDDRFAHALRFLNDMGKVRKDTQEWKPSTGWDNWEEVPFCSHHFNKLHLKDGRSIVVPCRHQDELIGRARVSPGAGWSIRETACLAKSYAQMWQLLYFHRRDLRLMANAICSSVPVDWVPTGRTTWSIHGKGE

With `Cc1ncnc2c1c(C#CC1CC1)cn2[C@@H]1O[C@H](CO)[C@@H](O)[C@@]1(C)F`, in the test with Zika virus [1], the Activity is <10%.

Turning to `Cc1ccc(C#Cc2cn([C@@H]3O[C@H](CO)[C@@H](O)[C@@]3(C)F)c3ncnc(C)c23)cc1`, in the test with Zika virus [1], the Activity is listed as >90%. Also, in the test on Zika virus [2], the EC50 was found to be 11.8 µM and the EC90 amounted to 24.2 µM. In the test with A549, the 50% cytotoxic concentration (CC50) was > 50 µM.

`Cc1ncnc2c1c(C#Cc1ccc(F)cc1)cn2[C@@H]1O[C@H](CO)[C@@H](O)[C@@]1(C)F`: in the test on Zika virus [1], the Activity came out at 37.5%.

In turn, `Cc1ncnc2c1c(C#Cc1ccccn1)cn2[C@@H]1O[C@H](CO)[C@@H](O)[C@@]1(C)F` gave an Activity with Zika virus [1] of 18.8%.

As for `COCc1ccccc1C#Cc1cn([C@@H]2O[C@H](CO)[C@@H](O)[C@@]2(C)F)c2ncnc(C)c12`, in the test on Zika virus [1], the Activity is listed as >90%. For the same compound, in the test on Zika virus [2], the EC50 is 13.5 µM and the EC90 was > 50 µM. In addition, the CC50 in the test on A549 is > 50 µM.

As to `Cc1ncnc2c1c(C#Cc1ccc(Br)cc1)cn2[C@@H]1O[C@H](CO)[C@@H](O)[C@@]1(C)F`, in the test on Zika virus [1], the Activity was >90%. Besides, in the test on Zika virus [2], the half-maximal effective concentration (EC50) stood at 4.4 µM and the EC90 stood at 14.7 µM. Further, the half-maximal cytotoxic concentration (CC50) in the test on A549 is > 50 µM.

Consider `Cc1ncnc2c1c(C#Cc1ccccc1)cn2[C@@H]1O[C@H](CO)[C@@H](O)[C@@]1(C)F`, for which, in the test on Zika virus [2], the half-maximal effective concentration (EC50) is 13.8 µM and the EC90 was 33.6 µM. Moreover, the CC50 with A549 is > 50 µM.

Regarding `Cc1ncnc2c1c(C#Cc1ccc(Br)cc1F)cn2[C@@H]1O[C@H](CO)[C@@H](O)[C@@]1(C)F`, in the test on Zika virus [2], the EC50 was found to be 3 µM and the 90% effect concentration (EC90) was found to be 7.9 µM. Besides, the CC50 in the test with A549 is > 50 µM.

In the test on Zika virus [1], `Cc1ncnc2c1c(C#Cc1ccccc1C(F)(F)F)cn2[C@@H]1O[C@H](CO)[C@@H](O)[C@@]1(C)F` had an Activity of 34.4%.

As to `Cc1ncnc2c1c(C#Cc1ccccc1F)cn2[C@@H]1O[C@H](CO)[C@@H](O)[C@@]1(C)F`, in the test with Zika virus [1], the Activity was >90%. Also, in the test on Zika virus [2], the EC50 was 4.9 µM and the EC90 came out at 19.7 µM. Also, the half-maximal cytotoxic concentration (CC50) with A549 is > 50 µM.

In turn, `Cc1ccc(C#Cc2cn([C@@H]3O[C@H](CO)[C@@H](O)[C@@]3(C)F)c3ncnc(C)c23)s1` had an Activity in the test on Zika virus [1] of 43.9%.

For `CCOC(=O)c1ccc(C#Cc2cn([C@@H]3O[C@H](CO)[C@@H](O)[C@@]3(C)F)c3ncnc(C)c23)s1`, in the test with Zika virus [1], the Activity was >90%. For the same compound, in the test with Zika virus [2], the EC50 came to 39.8 µM and the EC90 was > 50 µM. Also, the cytotoxic concentration (CC50) with A549 was > 50 µM.

`CC#Cc1cn([C@@H]2O[C@H](CO)[C@@H](O)[C@@]2(C)F)c2ncnc(C)c12`: the Activity in the test with Zika virus [1] is listed as <10%.

On to `Cc1ncnc2c1c(C#Cc1ccccc1Br)cn2[C@@H]1O[C@H](CO)[C@@H](O)[C@@]1(C)F`, for which the Activity in the test with Zika virus [1] is >90%. In addition, in the test on Zika virus [2], the concentration for a half-maximal effect (EC50) is 9.6 µM and the EC90 is 19.7 µM. The CC50 in the test with A549 is > 50 µM.

On to `Cc1ncnc2c1c(C#Cc1ncccn1)cn2[C@@H]1O[C@H](CO)[C@@H](O)[C@@]1(C)F`, for which, in the test on Zika virus [1], the Activity was <10%.

Regarding `Cc1ncnc2c1c(/C=C/c1ccccc1)cn2[C@@H]1O[C@H](CO)[C@@H](O)[C@@]1(C)F`, the Activity with Zika virus [1] was <10%.

In the test on Zika virus [1], `Cc1ccsc1C#Cc1cn([C@@H]2O[C@H](CO)[C@@H](O)[C@@]2(C)F)c2ncnc(C)c12` returned an Activity of 40.2%.

For `Cc1ncnc2c1c(-c1ccc(-c3ccccc3)cc1)cn2[C@@H]1O[C@H](CO)[C@@H](O)[C@@]1(C)F`, in the test on Zika virus [1], the Activity is given as 29.9%.

On to `Cc1ncnc2c1c(-c1ccccc1)cn2[C@@H]1O[C@H](CO)[C@@H](O)[C@@]1(C)F`, for which the Activity with Zika virus [1] is listed as <10%.

Consider `Cc1ncnc2c1c(C#Cc1cccnc1)cn2[C@@H]1O[C@H](CO)[C@@H](O)[C@@]1(C)F`, for which the Activity with Zika virus [1] was <10%.

In the case of `C#Cc1cn([C@@H]2O[C@H](CO)[C@@H](O)[C@@]2(C)F)c2ncnc(C)c12`, the Activity with Zika virus [1] is <10%.

On to `COc1ccccc1C#Cc1cn([C@@H]2O[C@H](CO)[C@@H](O)[C@@]2(C)F)c2ncnc(C)c12`, for which the Activity in the test on Zika virus [1] is on record as >90%. Besides, in the test on Zika virus [2], the EC50 was found to be 40.3 µM and the 90% effect concentration (EC90) was > 50 µM. For the same compound, the half-maximal cytotoxic concentration (CC50) with A549 was > 50 µM.

As to `Cc1ccnc(C#Cc2cn([C@@H]3O[C@H](CO)[C@@H](O)[C@@]3(C)F)c3ncnc(C)c23)c1`, the Activity in the test on Zika virus [1] was <10%.

For the compound `Cc1ncnc2c1c(C#Cc1cccc(Br)c1)cn2[C@@H]1O[C@H](CO)[C@@H](O)[C@@]1(C)F`, in the test with Zika virus [1], the Activity is >90%. In the test on Zika virus [2], the 50% effective concentration (EC50) is 4.5 µM and the EC90 came to 15.4 µM. For the same compound, in the test on A549, the 50% cytotoxic concentration (CC50) was > 50 µM.

As for `C#C[C@@]1(O)[C@H](O)[C@@H](CO)O[C@H]1n1ccc2c(N)ncnc21`, the Kd at NS5 was 3.43 µM. Besides, in the test on Zika virus [2], the 50% effective concentration (EC50) was determined as 14 µM and the concentration for an effect of 90% (EC90) amounted to 30.9 µM. In addition, the CC50 with A549 was > 50 µM.

With `COc1cccc(C#Cc2cn([C@@H]3O[C@H](CO)[C@@H](O)[C@@]3(C)F)c3ncnc(C)c23)n1`, in the test on Zika virus [1], the Activity is <10%.

For `Cc1ncnc2c1c(-n1cc(-c3ccccc3)nn1)cn2[C@@H]1O[C@H](CO)[C@@H](O)[C@@]1(C)F`, in the test on Zika virus [1], the Activity is listed as <10%.

On to `Cc1ncnc2c1c(C#Cc1cccc(F)c1)cn2[C@@H]1O[C@H](CO)[C@@H](O)[C@@]1(C)F`, for which the Activity in the test with Zika virus [1] was <10%.

With `COc1cccc(C#Cc2cn([C@@H]3O[C@H](CO)[C@@H](O)[C@@]3(C)F)c3ncnc(C)c23)c1`, the Activity in the test with Zika virus [1] was >90%. In the test with Zika virus [2], the 50% effective concentration (EC50) worked out at 14.8 µM and the EC90 was determined as 40.4 µM. Also, the half-maximal cytotoxic concentration (CC50) in the test on A549 was > 50 µM.

Consider `Cc1ccccc1C#Cc1cn([C@@H]2O[C@H](CO)[C@@H](O)[C@@]2(C)F)c2ncnc(C)c12`, for which the Activity with Zika virus [1] was >90%. Moreover, in the test with Zika virus [2], the EC50 was 8.5 µM and the EC90 was found to be 25.7 µM. In the test with A549, the 50% cytotoxic concentration (CC50) is > 50 µM.

Consider `COc1ccc(C#Cc2cn([C@@H]3O[C@H](CO)[C@@H](O)[C@@]3(C)F)c3ncnc(C)c23)cc1`, for which, in the test with Zika virus [1], the Activity is >90%. For the same compound, in the test on Zika virus [2], the EC50 was 11.8 µM and the EC90 was determined as 40.7 µM. The CC50 in the test with A549 was > 50 µM.

In the case of `Cc1ncnc2c1c(C#Cc1cccs1)cn2[C@@H]1O[C@H](CO)[C@@H](O)[C@@]1(C)F`, the Activity in the test with Zika virus [1] is >90%. Further, in the test on Zika virus [2], the EC50 came to 35.4 µM and the 90% effect concentration (EC90) was 50 µM. For the same compound, the cytotoxic concentration (CC50) in the test with A549 is > 50 µM.

As for `Cc1ncnc2c1c(C#Cc1nccs1)cn2[C@@H]1O[C@H](CO)[C@@H](O)[C@@]1(C)F`, in the test on Zika virus [1], the Activity was <10%.

Take `Cc1cccc(C#Cc2cn([C@@H]3O[C@H](CO)[C@@H](O)[C@@]3(C)F)c3ncnc(C)c23)n1`: in the test with Zika virus [1], the Activity is given as <10%.

For the compound `Cc1cccnc1C#Cc1cn([C@@H]2O[C@H](CO)[C@@H](O)[C@@]2(C)F)c2ncnc(C)c12`, the Activity in the test on Zika virus [1] is on record as <10%.

For `Cc1ncnc2c1c(C1CC1c1ccccc1)cn2[C@@H]1O[C@H](CO)[C@@H](O)[C@@]1(C)F` (some centres undefined), the Activity in the test on Zika virus [1] is <10%.

Regarding `Cc1cccc(C#Cc2cn([C@@H]3O[C@H](CO)[C@@H](O)[C@@]3(C)F)c3ncnc(C)c23)c1`, the Activity in the test on Zika virus [1] is reported as >90%. In the test on Zika virus [2], the concentration giving a half-maximal response (EC50) worked out at 7.1 µM and the EC90 amounted to 19.1 µM. In addition, the cytotoxic concentration (CC50) with A549 is > 50 µM.

For the compound `Cc1ncnc2c1c(C#CC(C)(C)C)cn2[C@@H]1O[C@H](CO)[C@@H](O)[C@@]1(C)F`, the Activity in the test on Zika virus [1] is reported as 22.4%.
